Drawing on PubChem BioAssay (NCI), this text covers TGI and GI50 for 12 compounds.

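Protocol summary: plate cells (96-well), add compound at 5 concentrations, incubate 48 h, interpolate endpoints linearly. Abbreviation: GI50, concentration required for 50% inhibition of growth. TGI marks complete inhibition of growth.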 Bounds are passed on as bounds.

Among the test systems are CCRF-CEM leukemia; HCT-116 colon; SK-MEL-2 melanoma; K-562 leukemia; KM12 colon; M14 melanoma; EKVX NSCLC; SK-MEL-28 melanoma; ACHN renal.
Assay in all cases: NCI-60 cell line screen, 48 h

`COc1cccc(C(=O)O)c1Cc1cccc2ccccc12`: the TGI in the assay with CCRF-CEM leukemia, with HCT-116 colon, in the assay with SK-MEL-2 melanoma, in the assay on K-562 leukemia, in the assay with KM12 colon and with M14 melanoma was over 100 µM in each case. The TGI with EKVX NSCLC, in the assay on SK-MEL-28 melanoma and with ACHN renal was over 100 µM throughout.

Regarding `COC(=O)/C1=C/C2CC(/C=C(/c3ccccc3)C(=O)O1)C2`, the TGI was 70.5 µM in the assay with CCRF-CEM leukemia; 56.6 µM with HCT-116 colon; 96.1 µM with K-562 leukemia; 62 µM with KM12 colon; over 100 µM with M14 melanoma; over 100 µM with EKVX NSCLC. Also, the TGI stood at 66.4 µM in the assay on SK-MEL-28 melanoma and 96.5 µM in the assay with ACHN renal.

As for `CP(=O)(CCSc1ccccc1)c1ccccc1` (stereo unspecified), the TGI in the assay on CCRF-CEM leukemia, in the assay with HCT-116 colon, in the assay on K-562 leukemia, in the assay with M14 melanoma, with EKVX NSCLC and in the assay on SK-MEL-28 melanoma was over 100 µM each time. Also, in the assay with ACHN renal, the TGI was over 100 µM.

As for `O=S(O)CCCCSSCCCCS(=O)(O)=S`, the TGI was over 100 µM in the assay with CCRF-CEM leukemia; over 100 µM with HCT-116 colon; over 100 µM in the assay with SK-MEL-2 melanoma; over 100 µM in the assay on K-562 leukemia; over 100 µM in the assay on KM12 colon; 32.1 µM in the assay with M14 melanoma. For the same compound, the TGI was 88.6 µM in the assay on EKVX NSCLC, over 100 µM with SK-MEL-28 melanoma and over 100 µM with ACHN renal.

Turning to `c1ccc2c(c1)[Se]c1ccccc1[Se]2`, the TGI was over 100 µM in the assay on CCRF-CEM leukemia; 72.4 µM in the assay with HCT-116 colon; over 100 µM in the assay with SK-MEL-2 melanoma; over 100 µM in the assay on K-562 leukemia; over 100 µM in the assay on KM12 colon; over 100 µM in the assay with M14 melanoma. The TGI with SK-MEL-28 melanoma and with ACHN renal was over 100 µM in each case.

On to `CC(C)c1cccc2sc(NC(=O)C(=O)CC(=O)c3ccc(F)cc3)nc12`, for which the TGI with CCRF-CEM leukemia, with HCT-116 colon, in the assay on SK-MEL-2 melanoma, in the assay with K-562 leukemia, with KM12 colon and with M14 melanoma was over 100 µM each time. For the same compound, the TGI with EKVX NSCLC, with SK-MEL-28 melanoma and in the assay with ACHN renal was over 100 µM throughout.

With `CN1NC(c2ccccc2)=C(C#N)C(=O)CC1c1ccccc1Cl` (stereo unspecified), the TGI in the assay with CCRF-CEM leukemia, in the assay with HCT-116 colon, in the assay on SK-MEL-2 melanoma, in the assay on KM12 colon, with M14 melanoma and in the assay on SK-MEL-28 melanoma was over 100 µM in each case. Further, in the assay on ACHN renal, the TGI is over 100 µM.

For the compound `CCC(=O)[O-].CCC(=O)[O-].N.N.N.N.[Co+3].[O-][Cl+3]([O-])([O-])[O-]`, the GI50 with CCRF-CEM leukemia, in the assay with HCT-116 colon, in the assay on SK-MEL-2 melanoma, in the assay with K-562 leukemia, in the assay with KM12 colon and in the assay with M14 melanoma was over 100 µM each time. Besides, the GI50 with EKVX NSCLC, with SK-MEL-28 melanoma and with ACHN renal was over 100 µM each time. The TGI with CCRF-CEM leukemia, in the assay with HCT-116 colon, with SK-MEL-2 melanoma, in the assay on K-562 leukemia, in the assay with KM12 colon and in the assay with M14 melanoma was over 100 µM each time. The TGI with EKVX NSCLC, in the assay on SK-MEL-28 melanoma and in the assay with ACHN renal was over 100 µM throughout.

Regarding `CC(=O)c1ccc(NCn2nc(-c3ccccc3O)oc2=S)cc1`, the GI50 in the assay on HCT-116 colon, in the assay with SK-MEL-2 melanoma, with K-562 leukemia, in the assay with KM12 colon, in the assay on M14 melanoma and with EKVX NSCLC was over 100 µM each time. Besides, the values for the GI50 in the assay on SK-MEL-28 melanoma and with ACHN renal were over 100 µM and 29.6 µM, respectively. Moreover, the TGI in the assay on HCT-116 colon, with SK-MEL-2 melanoma, in the assay on K-562 leukemia, in the assay with KM12 colon, in the assay on M14 melanoma and in the assay with EKVX NSCLC was over 100 µM in each case. The TGI is over 100 µM with SK-MEL-28 melanoma and 71.9 µM with ACHN renal.

Consider `CCCC(=O)C(CC)/C(CCC(=O)N(Cc1ccccc1)Cc1ccccc1)=N/NC(=O)C[N+](C)(C)C` (stereo unspecified), for which the TGI in the assay with CCRF-CEM leukemia, in the assay on HCT-116 colon, in the assay on SK-MEL-2 melanoma, in the assay on K-562 leukemia, in the assay with KM12 colon and with M14 melanoma was over 100 µM throughout. In addition, the TGI in the assay on EKVX NSCLC, with SK-MEL-28 melanoma and in the assay with ACHN renal was over 100 µM each time.

Take `NC(N)=NS(=O)(=O)c1ccc(NC(=O)c2ccc(Cl)c3c(Nc4ccc(S(=O)(=O)N=C(N)N)cc4)c4ccccc4nc23)cc1`: the TGI with CCRF-CEM leukemia, with SK-MEL-2 melanoma, in the assay on K-562 leukemia, in the assay on KM12 colon, with M14 melanoma and in the assay on EKVX NSCLC was over 100 µM throughout. Besides, the TGI in the assay on SK-MEL-28 melanoma and in the assay with ACHN renal was over 100 µM throughout.

As to `CCOc1ccccc1N=C(NC(=O)CC)SC`, the GI50 with CCRF-CEM leukemia was over 10 µM; with HCT-116 colon it was over 10 µM; in the assay on SK-MEL-2 melanoma, over 10 µM; in the assay with K-562 leukemia, over 100 µM; in the assay with KM12 colon, over 100 µM; in the assay on M14 melanoma, over 100 µM. The GI50 with EKVX NSCLC, in the assay with SK-MEL-28 melanoma and with ACHN renal was over 100 µM throughout. Moreover, the TGI with CCRF-CEM leukemia, in the assay with HCT-116 colon, in the assay with SK-MEL-2 melanoma, with K-562 leukemia, in the assay with KM12 colon and in the assay on M14 melanoma was over 100 µM each time. Also, the TGI in the assay with EKVX NSCLC, in the assay on SK-MEL-28 melanoma and in the assay with ACHN renal was over 100 µM in each case.
